From ChEMBL document CHEMBL6074715, “Discovery of pyridine-based derivatives as FLT3 inhibitors for the treatment of acute myeloid leukemia” (Eur J Med Chem, 2025)
pIC50: −log10 of the molar value. Activity calls are given as the source filed them. The calls are words filed in the database; no cut-off is given here.

Experiments:
BaF3 = assay: Antiproliferative activity against mouse BaF3 cells harbouring TEL-VEGFR2 assessed as inhibition of cell growth measured after 72 hrs by Celltiter-glo luminescent cell viability assay; assay type: functional, cell-based; details: BaF3, 72 h
MOLM-14 = assay: Antiproliferative activity against human MOLM-14 cells harbouring FLT3-ITD assessed as inhibition of cell growth measured after 72 hrs by Celltiter-glo luminescent cell viability assay; assay type: functional, cell-based; details: MOLM-14, 72 h
MOLM-13 [1] = assay: Induction of cell cycle arrest in human MOLM-13 cells assessed as accumulation of cells at S phase at 3 uM measured after 48 hrs by PI staining based flow cytometry analysis (reference value: 45.3%); assay type: functional
MOLM-13 [2] = assay: Induction of cell cycle arrest in human MOLM-13 cells assessed as accumulation of cells at S phase at 0.3 uM measured after 48 hrs by PI staining based flow cytometry analysis (reference value: 45.3%); assay type: functional
[3] = biological target: Receptor-type tyrosine-protein kinase FLT3 (Homo sapiens) (UniProt P36888); assay: Inhibition of FLT3 phosphorylation in human MOLM-13 cells at 40 nM incubated for 2 hrs by Western blot analysis relative to control; assay type: cell-based
MOLM-13 [4] = assay: Effect on FLT3 level in human MOLM-13 cells at 0.04 to 5 nM measured after 2 hrs by Western blot analysis; assay type: functional, cell-based; details: dose 0.04-5 nM
MOLM-13 [5] = assay: Induction of cell cycle arrest in human MOLM-13 cells assessed as accumulation of cells at G1 phase at 0.3 uM measured after 48 hrs by PI staining based flow cytometry analysis (reference value: 42.8%); assay type: functional
MOLM-13 [6] = assay: Induction of cell cycle arrest in human MOLM-13 cells assessed as accumulation of cells at G2 phase at 0.3 uM measured after 48 hrs by PI staining based flow cytometry analysis (reference value: 12.5%); assay type: functional
MOLM-13 [7] = assay: Induction of cell cycle arrest in human MOLM-13 cells assessed as accumulation of cells at G2 phase at 3 uM measured after 48 hrs by PI staining based flow cytometry analysis (reference value: 12.5%); assay type: functional
MOLM-13 [8] = assay: Induction of apoptosis in human MOLM-13 cells assessed as late apoptotic cells at 0.3 uM measured after 48 hrs by annexin-V and PI staining based flow cytometry analysis (reference value: 2.28%); assay type: functional
MOLM-13 [9] = assay: Induction of apoptosis in human MOLM-13 cells assessed as necrotic cells at 3 uM measured after 48 hrs by annexin-V and PI staining based flow cytometry analysis (reference value: 0.087%); assay type: functional
[10] = Tmax in Sprague-Dawley rat at 5 mg/kg, iv measured upto 48 hrs by LC-MS/MS analysis; assay type: ADME, organism-based; details: in vivo
[11] = MRT (0 to t) in Sprague-Dawley rat at 5 mg/kg, iv measured upto 48 hrs by LC-MS/MS analysis; assay type: ADME, organism-based; details: in vivo
[12] = Half life in Sprague-Dawley rat at 20 mg/kg, po measured upto 48 hrs by LC-MS/MS analysis; assay type: ADME, organism-based; details: in vivo
[13] = Cmax in Sprague-Dawley rat at 20 mg/kg, po measured upto 48 hrs by LC-MS/MS analysis; assay type: ADME, organism-based; details: in vivo
[14] = Tmax in Sprague-Dawley rat at 20 mg/kg, po measured upto 48 hrs by LC-MS/MS analysis; assay type: ADME, organism-based; details: in vivo
[15] = Toxicity in female NSG mouse assessed as effect on lung at 20 to 40 mg/kg, po measured after 21 days by H and E staining based analysis; assay type: organism-based; details: in vivo, 504 h, dose 20-40 mg/kg, time 21 day
[16] = Toxicity in female NSG mouse assessed as effect on kidney at 20 to 40 mg/kg, po measured after 21 days by H and E staining based analysis; assay type: organism-based; details: in vivo, 504 h, dose 20-40 mg/kg, time 21 day
[17] = biological target: T1, Vascular endothelial growth factor receptor 1 (Homo sapiens, UniProt P17948); assay: Inhibition of human FLT assessed as residual activity at 1 uM by Eurofins kinase assay relative to control
[18] = biological target: Tyrosine-protein kinase ABL1 (Homo sapiens) (UniProt P00519); assay: Inhibition of human ABL1 at 1 uM by Eurofins kinase assay
[19] = biological target: Serine/threonine-protein kinase B-raf (Homo sapiens) (UniProt P15056); assay: Inhibition of human BRAF at 1 uM by Eurofins kinase assay
[20] = system: Mast/stem cell growth factor receptor Kit (Homo sapiens), P10721 [D816V]; assay: Inhibition of human c-kit D816V mutant at 1 uM by Eurofins kinase assay
Homo sapiens [21] = species: Homo sapiens; assay: Inhibition of human cSRC at 1 uM by Eurofins kinase assay
Homo sapiens [22] = species: Homo sapiens; assay: Inhibition of human DNA-PK at 1 uM by Eurofins kinase assay
[23] = biological target: Fibroblast growth factor receptor 2 (Homo sapiens) (UniProt P21802); assay: Inhibition of human FGFR2 at 1 uM by Eurofins kinase assay
[24] = biological target: Fibroblast growth factor receptor 4 (Homo sapiens) (UniProt P22455); assay: Inhibition of human FGFR4 at 1 uM by Eurofins kinase assay
[25] = biological target: Receptor-type tyrosine-protein kinase FLT3 (Homo sapiens) (UniProt P36888); assay: Inhibition of human FLT3 at 1 uM by Eurofins kinase assay
[26] = biological target: Mitogen-activated protein kinase kinase kinase 1 (Homo sapiens) (UniProt Q13233); assay: Inhibition of human MEKK1 at 1 uM by Eurofins kinase assay
[27] = biological target: Serine/threonine-protein kinase Nek2 (Homo sapiens) (UniProt P51955); assay: Inhibition of human NEK2 at 1 uM by Eurofins kinase assay
[28] = biological target: Platelet-derived growth factor receptor alpha (Homo sapiens) (UniProt P16234); assay: Inhibition of human PDGFRalpha at 1 uM by Eurofins kinase assay
[29] = biological target: Platelet-derived growth factor receptor beta (Homo sapiens) (UniProt P09619); assay: Inhibition of human PDGFRbeta at 1 uM by Eurofins kinase assay
Homo sapiens [30] = species: Homo sapiens; assay: Inhibition of human Rct at 1 uM by Eurofins kinase assay
[31] = biological target: Receptor-interacting serine/threonine-protein kinase 1 (Homo sapiens) (UniProt Q13546); assay: Inhibition of human RIPK1 at 1 uM by Eurofins kinase assay
[32] = biological target: Proto-oncogene tyrosine-protein kinase ROS (Homo sapiens) (UniProt P08922); assay: Inhibition of human Ros at 1 uM by Eurofins kinase assay
[33] = biological target: Non-receptor tyrosine-protein kinase TYK2 (Homo sapiens) (UniProt P29597); assay: Inhibition of human TYK2 at 1 uM by Eurofins kinase assay
[34] = biological target: Serine/threonine-protein kinase WNK1 (Homo sapiens) (UniProt Q9H4A3); assay: Inhibition of human WNK1 at 1 uM by Eurofins kinase assay
[35] = biological target: Vascular endothelial growth factor receptor 2 (Homo sapiens, UniProt P35968); assay: Inhibition of VEGFR2 (unknown origin) preincubated for 10 mins followed by addition of peptide solution by caliper mobility shift assay
[36] = biological target: T1, Vascular endothelial growth factor receptor 1; assay: Inhibition of FLT (unknown origin) preincubated for 10 mins followed by addition of peptide solution by caliper mobility shift assay
[37] = biological target: Macrophage colony-stimulating factor 1 receptor (Homo sapiens, UniProt P07333); assay: Inhibition of FMS (unknown origin) preincubated for 10 mins followed by addition of peptide solution by caliper mobility shift assay

T1 sequence (P17948 whole entry): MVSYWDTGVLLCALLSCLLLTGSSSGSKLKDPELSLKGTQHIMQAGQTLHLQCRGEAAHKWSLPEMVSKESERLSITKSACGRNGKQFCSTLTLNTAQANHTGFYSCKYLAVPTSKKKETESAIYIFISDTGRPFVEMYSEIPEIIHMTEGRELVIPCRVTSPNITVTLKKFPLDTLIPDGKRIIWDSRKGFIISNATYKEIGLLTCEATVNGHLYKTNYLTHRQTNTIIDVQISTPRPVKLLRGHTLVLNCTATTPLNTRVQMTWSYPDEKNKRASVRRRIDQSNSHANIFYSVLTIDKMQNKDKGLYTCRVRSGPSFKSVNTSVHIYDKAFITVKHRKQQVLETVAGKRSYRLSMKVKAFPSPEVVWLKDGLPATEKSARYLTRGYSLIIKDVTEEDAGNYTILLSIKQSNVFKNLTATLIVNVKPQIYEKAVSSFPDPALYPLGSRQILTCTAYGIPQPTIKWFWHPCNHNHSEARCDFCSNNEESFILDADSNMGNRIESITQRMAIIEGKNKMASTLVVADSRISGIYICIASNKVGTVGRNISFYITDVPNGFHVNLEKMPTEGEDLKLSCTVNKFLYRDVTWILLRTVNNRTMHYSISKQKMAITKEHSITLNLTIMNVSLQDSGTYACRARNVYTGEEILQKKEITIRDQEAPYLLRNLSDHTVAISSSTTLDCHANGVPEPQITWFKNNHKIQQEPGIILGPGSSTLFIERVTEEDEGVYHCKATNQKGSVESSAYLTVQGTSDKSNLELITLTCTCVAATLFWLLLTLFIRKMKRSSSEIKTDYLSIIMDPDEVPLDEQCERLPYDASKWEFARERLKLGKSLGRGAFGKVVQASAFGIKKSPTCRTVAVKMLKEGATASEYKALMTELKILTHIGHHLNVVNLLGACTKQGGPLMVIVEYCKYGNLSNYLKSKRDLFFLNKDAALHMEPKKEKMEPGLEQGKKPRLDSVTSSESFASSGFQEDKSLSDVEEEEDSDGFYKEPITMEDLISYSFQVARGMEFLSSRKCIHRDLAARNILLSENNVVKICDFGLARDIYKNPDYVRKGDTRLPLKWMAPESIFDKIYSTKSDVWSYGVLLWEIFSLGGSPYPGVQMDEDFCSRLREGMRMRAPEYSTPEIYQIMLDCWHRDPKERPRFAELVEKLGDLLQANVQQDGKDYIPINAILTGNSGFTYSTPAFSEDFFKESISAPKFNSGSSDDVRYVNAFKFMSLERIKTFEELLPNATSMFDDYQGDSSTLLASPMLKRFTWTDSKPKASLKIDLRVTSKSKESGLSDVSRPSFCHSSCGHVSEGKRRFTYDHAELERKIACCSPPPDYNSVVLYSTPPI
Chain of Receptor-type tyrosine-protein kinase FLT3 (Homo sapiens) (P36888 whole entry): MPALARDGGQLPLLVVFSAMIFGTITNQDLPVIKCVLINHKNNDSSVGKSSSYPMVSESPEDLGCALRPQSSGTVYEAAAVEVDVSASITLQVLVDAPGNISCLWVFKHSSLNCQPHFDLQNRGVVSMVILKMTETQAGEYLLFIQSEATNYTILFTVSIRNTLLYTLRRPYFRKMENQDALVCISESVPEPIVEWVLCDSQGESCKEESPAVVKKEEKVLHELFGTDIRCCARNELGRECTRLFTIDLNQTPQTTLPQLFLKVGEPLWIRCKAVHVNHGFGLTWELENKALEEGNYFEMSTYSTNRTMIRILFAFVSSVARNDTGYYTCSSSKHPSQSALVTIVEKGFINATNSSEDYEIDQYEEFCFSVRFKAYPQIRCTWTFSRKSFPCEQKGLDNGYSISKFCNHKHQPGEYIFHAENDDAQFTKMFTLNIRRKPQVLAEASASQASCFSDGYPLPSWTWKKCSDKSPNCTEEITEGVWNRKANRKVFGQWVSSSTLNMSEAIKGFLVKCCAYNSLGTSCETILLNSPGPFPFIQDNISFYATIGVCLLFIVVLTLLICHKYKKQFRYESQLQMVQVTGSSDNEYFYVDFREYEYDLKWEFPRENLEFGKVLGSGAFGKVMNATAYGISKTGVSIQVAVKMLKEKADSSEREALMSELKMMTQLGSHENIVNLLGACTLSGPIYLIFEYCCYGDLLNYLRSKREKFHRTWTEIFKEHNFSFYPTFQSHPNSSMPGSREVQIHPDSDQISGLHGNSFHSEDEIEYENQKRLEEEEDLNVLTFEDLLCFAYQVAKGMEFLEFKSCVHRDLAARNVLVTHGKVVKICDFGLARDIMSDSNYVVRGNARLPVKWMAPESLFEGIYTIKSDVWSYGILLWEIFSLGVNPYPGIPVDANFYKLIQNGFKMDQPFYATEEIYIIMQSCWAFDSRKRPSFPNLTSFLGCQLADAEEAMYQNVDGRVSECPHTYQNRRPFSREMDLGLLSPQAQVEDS
Chain of Serine/threonine-protein kinase WNK1 (Homo sapiens) (Q9H4A3 whole entry, looked up): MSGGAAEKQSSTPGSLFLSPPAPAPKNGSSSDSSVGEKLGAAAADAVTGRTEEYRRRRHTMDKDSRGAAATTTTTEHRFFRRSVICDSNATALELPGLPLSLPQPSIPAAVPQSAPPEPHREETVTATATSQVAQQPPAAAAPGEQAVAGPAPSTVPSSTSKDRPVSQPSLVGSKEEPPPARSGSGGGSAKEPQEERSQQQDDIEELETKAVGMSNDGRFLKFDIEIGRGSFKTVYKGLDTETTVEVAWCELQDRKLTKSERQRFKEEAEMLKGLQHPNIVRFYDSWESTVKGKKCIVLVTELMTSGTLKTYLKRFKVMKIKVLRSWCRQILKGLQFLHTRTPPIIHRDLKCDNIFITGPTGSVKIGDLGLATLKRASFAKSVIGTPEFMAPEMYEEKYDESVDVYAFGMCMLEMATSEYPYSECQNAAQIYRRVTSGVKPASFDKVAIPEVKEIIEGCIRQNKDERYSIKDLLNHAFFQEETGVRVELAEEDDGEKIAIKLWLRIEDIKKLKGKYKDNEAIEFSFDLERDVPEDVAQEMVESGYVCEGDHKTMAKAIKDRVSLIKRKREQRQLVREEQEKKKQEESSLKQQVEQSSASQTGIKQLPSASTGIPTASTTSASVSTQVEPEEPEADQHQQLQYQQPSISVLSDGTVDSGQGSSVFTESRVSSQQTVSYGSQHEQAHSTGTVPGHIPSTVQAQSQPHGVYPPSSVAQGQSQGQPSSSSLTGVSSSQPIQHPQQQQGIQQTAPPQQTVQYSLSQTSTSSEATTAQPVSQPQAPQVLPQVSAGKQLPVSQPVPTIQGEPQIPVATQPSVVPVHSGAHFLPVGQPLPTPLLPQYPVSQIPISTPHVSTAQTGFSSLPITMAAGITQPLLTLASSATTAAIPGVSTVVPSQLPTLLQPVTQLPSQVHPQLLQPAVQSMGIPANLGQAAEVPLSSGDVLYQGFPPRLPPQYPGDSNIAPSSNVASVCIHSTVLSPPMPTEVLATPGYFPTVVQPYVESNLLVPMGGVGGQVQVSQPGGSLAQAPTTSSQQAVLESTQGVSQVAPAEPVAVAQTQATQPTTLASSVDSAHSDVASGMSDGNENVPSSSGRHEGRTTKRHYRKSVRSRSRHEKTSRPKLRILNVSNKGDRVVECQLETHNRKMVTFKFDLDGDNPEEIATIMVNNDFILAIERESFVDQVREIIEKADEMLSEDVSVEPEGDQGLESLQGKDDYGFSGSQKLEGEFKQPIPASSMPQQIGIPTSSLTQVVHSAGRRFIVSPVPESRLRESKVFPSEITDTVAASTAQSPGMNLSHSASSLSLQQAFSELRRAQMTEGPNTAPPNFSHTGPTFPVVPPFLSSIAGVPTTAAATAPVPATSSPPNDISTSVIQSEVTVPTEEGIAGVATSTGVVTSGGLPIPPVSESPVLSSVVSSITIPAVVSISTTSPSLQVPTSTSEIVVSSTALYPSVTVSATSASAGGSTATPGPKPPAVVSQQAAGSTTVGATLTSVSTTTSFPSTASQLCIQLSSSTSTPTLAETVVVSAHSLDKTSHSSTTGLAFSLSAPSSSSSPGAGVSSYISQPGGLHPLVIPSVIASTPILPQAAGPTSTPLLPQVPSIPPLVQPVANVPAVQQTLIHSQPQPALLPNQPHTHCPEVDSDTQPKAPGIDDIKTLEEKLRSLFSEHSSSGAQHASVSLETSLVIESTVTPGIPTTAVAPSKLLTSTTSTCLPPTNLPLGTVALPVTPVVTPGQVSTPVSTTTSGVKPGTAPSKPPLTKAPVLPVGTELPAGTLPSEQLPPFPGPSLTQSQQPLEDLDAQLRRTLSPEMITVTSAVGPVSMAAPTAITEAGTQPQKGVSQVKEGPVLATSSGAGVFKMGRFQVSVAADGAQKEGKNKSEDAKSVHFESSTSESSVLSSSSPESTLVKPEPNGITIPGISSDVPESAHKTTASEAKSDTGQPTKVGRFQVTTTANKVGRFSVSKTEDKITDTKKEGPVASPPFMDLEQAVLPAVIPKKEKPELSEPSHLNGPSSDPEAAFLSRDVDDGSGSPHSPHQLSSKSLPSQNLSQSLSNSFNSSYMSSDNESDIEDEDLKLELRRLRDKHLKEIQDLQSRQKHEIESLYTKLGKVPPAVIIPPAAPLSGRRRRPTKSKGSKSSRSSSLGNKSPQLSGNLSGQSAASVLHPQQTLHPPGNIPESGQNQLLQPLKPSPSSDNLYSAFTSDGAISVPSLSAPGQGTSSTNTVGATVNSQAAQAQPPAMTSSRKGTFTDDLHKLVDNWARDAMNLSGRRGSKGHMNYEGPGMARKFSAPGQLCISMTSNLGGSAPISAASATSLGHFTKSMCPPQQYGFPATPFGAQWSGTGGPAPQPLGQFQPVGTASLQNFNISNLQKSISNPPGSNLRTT

## O=C(Nc1ccc(Oc2ccnc(NC(=O)N3CC(O)C3)c2)c(F)c1)c1cn(-c2cccnc2)nn1
BaF3
  pIC50: 6.54
MOLM-14
  pIC50: 6.66
MOLM-13 [1]
  Activity: 4.87%
MOLM-13 [2]
  Activity: 14%
[3]
  inhibition: 100%
MOLM-13 [4]
  Activity: Not active; Compound Barely Affect Flt3 Level
MOLM-13 [5]
  Activity: 79.4%
MOLM-13 [6]
  Activity: 4.21%
MOLM-13 [7]
  Activity: 1.05%
MOLM-13 [8]
  Activity: 6.54%
MOLM-13 [9]
  Activity: 0.097%
[10]
  Tmax: 1.8 min
[11]
  MRT last at 48 h: 3.01 h
[12]
  half-life: 3.57 h
[13]
  Cmax: 8.02 µg/mL
[14]
  Tmax: 1.83 h
[15]
  Activity: Non-toxic
[16]
  Activity: Non-toxic
[17]
  Activity: 22%
[18]
  inhibition: inactive
[19]
  inhibition: inactive
[20]
  inhibition: inactive
Homo sapiens [21]
  inhibition: inactive
Homo sapiens [22]
  inhibition: inactive
[23]
  inhibition: inactive
[24]
  inhibition: inactive
[25]
  inhibition: inactive
[26]
  inhibition: inactive
[27]
  inhibition: inactive
[28]
  inhibition: inactive
[29]
  inhibition: inactive
Homo sapiens [30]
  inhibition: inactive
[31]
  inhibition: inactive
[32]
  inhibition: inactive
[33]
  inhibition: inactive
[34]
  inhibition: inactive
[35]
  pIC50: 6.95
[36]
  pIC50: 6.23
[37]
  pIC50: 6.88
